# Test results reported in patent publication US20200231638A1, “STABILIZED ANTI-MICROBIAL PEPTIDES” (priority 2015, published 2020).
# Bridge positions count the residues as written; N and C are the ends. Square brackets hold non-standard residues; d marks the D form. Peptide text beside a SMILES is read from it. S5 = C=CCCC[C@](C)(N)C(=O)O; Nle = CCCC[C@H](N)C(=O)O
# Columns and labels:
# E. coli = format: cell-based, Escherichia coli
# Procedure: (§1) Antimicrobial Activity Assay:
# (§2) The following microbroth dilution protocol was adapted to determine the minimum inhibitory concentration (MIC) of each peptide. First, Mueller-Hinton broth (MHB) was passed through an anion exchange column to remove polyanionic species and generate refined MHB. […] Briefly, bacterial cells was grown overnight in refined MHB at 37° C. and then diluted and allowed to grow again for several hours. Serial dilutions of peptide stocks in water (10 μl) were prepared using clear round-bottom polypropylene 96-well plates. Then 90 μl of bacteria in refined MHB was added to give a final inoculum of 5×10^5 CFU/ml. The plates were then covered with porous tape to reduce evaporation, and incubated for 20-24 hours at 37° C. The MIC is the minimum peptide concentration at which no visible growth was observed.
# P. aeruginosa = format: cell-based, Pseudomonas aeruginosa
# Procedure: as §1, §2
# B. cereus = format: cell-based, Bacillus cereus
# Procedure: as §1, §2
# human red blood cells = format: cell-based; settings: for % Hemolysis at 25 μg/ml: red cells of human, 1 h
# Procedure: FIG. 5 is a series of line graphs depicting the hemolytic activity of magainin II and stapled analogues. Peptides were incubated with 1% (v/v) human red blood cells in phosphate-buffered solution for 1 hour at 37° C. and then the supernatant was isolated and the amount of hemoglobin released was measured at 540 nm. % hemolysis was calculated relative to an untreated control.
# Hemolytic Activity Assay:
# For the determination of hemolytic activity, human blood samples were centrifuged to isolate red blood cells (RBCs), which are then washed and suspended in phosphate-buffered saline to yield a 1% (v/v) suspension. The suspension was then added to serial dilutions of peptide stocks in water in clear round-bottom polypropylene 96-well plates and the plates were incubated for 1 hour at 37° C. After incubation, the plates were centrifuged and the supernatant was isolated to determine the amount of hemoglobin released using a spectrophotometer (570 nm), according to the equation: % Hemolysis=(Treated Absorbance−Untreated Control Absorbance)/(1% Triton-X100 Treated Absorbance−Untreated Control Absorbance). The minimum hemolytic concentration (MHC) is the peptide concentration at which there is less than 1% hemoglobin release.
# S. aureus = format: cell-based, Staphylococcus aureus
# Procedure: as §1, §2
MIC E. coli (E. coli) [µg/mL],MIC P. aeruginosa (P. aeruginosa) [µg/mL],MIC B. cereus (B. cereus) [µg/mL],MIC S. aureus (S. aureus) [µg/mL],Compound,% Hemolysis at 25 μg/ml (human red blood cells) [%],hemolytic activity (in words) (human red blood cells)
3.1,12.5,50,>50,"CCCC[C@H](NC(=O)[C@]1(C)CCCC=CCCC[C@](C)(NC(=O)[C@H](C)NC(=O)[C@H](CCCCN)NC(=O)CNC(=O)[C@H](Cc2ccccc2)NC(=O)[C@H](CCCCN)NC(=O)[C@H](CCCCN)NC(=O)[C@H](C)NC(=O)[C@H](CO)NC(=O)[C@H](Cc2c[nH]cn2)NC(=O)[C@H](CC(C)C)NC(=O)[C@H](Cc2ccccc2)NC(=O)[C@H](CCCCN)NC(=O)CNC(=O)[C@@H](NC(=O)CN)[C@@H](C)CC)C(=O)N[C@@H](CCCCN)C(=O)NCC(=O)N[C@@H](CCC(=O)O)C(=O)N1)C(=O)N[C@@H](CC(N)=O)C(=O)N[C@@H](CO)C(N)=O [Mag(i + 4)15(V17K), GIGKFLHSAKKFGKAXKGEXBNS] (H-GIGKFLHSAKKFGKA[S5]KGE[S5][Nle]NS-NH2; staple 16-20)",2.2,–
3.1,12.5,12.5,25,"CCCC[C@H](NC(=O)[C@]1(C)CCCC=CCCC[C@](C)(NC(=O)[C@H](C)NC(=O)[C@H](CCCCN)NC(=O)CNC(=O)[C@H](Cc2ccccc2)NC(=O)[C@H](CCCCN)NC(=O)[C@H](CCCCN)NC(=O)[C@H](C)NC(=O)[C@H](CO)NC(=O)[C@H](Cc2c[nH]cn2)NC(=O)[C@H](CC(C)C)NC(=O)[C@H](Cc2ccccc2)NC(=O)[C@H](CCCCN)NC(=O)CNC(=O)[C@@H](NC(=O)CN)[C@@H](C)CC)C(=O)N[C@@H](C(C)C)C(=O)NCC(=O)N[C@@H](CCC(=O)O)C(=O)N1)C(=O)N[C@@H](CCC(=O)O)C(=O)N[C@@H](CO)C(N)=O [Mag(i + 4)15(N22E), GIGKFLHSAKKFGKAXVGEXBES] (H-GIGKFLHSAKKFGKA[S5]VGE[S5][Nle]ES-NH2; staple 16-20)",3.4,–
1.6,12.5,6.2,25,"CCCC[C@H](NC(=O)[C@]1(C)CCCC=CCCC[C@](C)(NC(=O)[C@H](C)NC(=O)[C@H](CCCCN)NC(=O)CNC(=O)[C@H](Cc2ccccc2)NC(=O)[C@H](CCCCN)NC(=O)[C@H](CCCCN)NC(=O)[C@H](C)NC(=O)[C@H](CO)NC(=O)[C@H](Cc2c[nH]cn2)NC(=O)[C@H](CC(C)C)NC(=O)[C@H](Cc2ccccc2)NC(=O)[C@H](CCCCN)NC(=O)[C@H](Cc2c[nH]cn2)NC(=O)[C@@H](NC(=O)CN)[C@@H](C)CC)C(=O)N[C@@H](C(C)C)C(=O)NCC(=O)N[C@@H](CCC(=O)O)C(=O)N1)C(=O)N[C@@H](CC(N)=O)C(=O)N[C@@H](CO)C(N)=O [Mag(i + 4)15(G3H), GIHKFLHSAKKFGKAXVGEXBNS] (H-GIHKFLHSAKKFGKA[S5]VGE[S5][Nle]NS-NH2; staple 16-20)",5.1,–
50,>50,>50,>50,"CCCC[C@H](NC(=O)[C@]1(C)CCCC=CCCC[C@](C)(NC(=O)[C@H](C)NC(=O)[C@H](CCCCN)NC(=O)CNC(=O)[C@H](Cc2ccccc2)NC(=O)[C@H](CCCCN)NC(=O)[C@H](CCCCN)NC(=O)[C@H](C)NC(=O)[C@H](CO)NC(=O)[C@H](Cc2c[nH]cn2)NC(=O)[C@H](CCC(=O)O)NC(=O)[C@H](Cc2ccccc2)NC(=O)[C@H](CCCCN)NC(=O)CNC(=O)[C@@H](NC(=O)CN)[C@@H](C)CC)C(=O)N[C@@H](C(C)C)C(=O)NCC(=O)N[C@@H](CCC(=O)O)C(=O)N1)C(=O)N[C@@H](CC(N)=O)C(=O)N[C@@H](CO)C(N)=O [Mag(i + 4)15(L6E), GIGKFEHSAKKFGKAXVGEXBNS] (H-GIGKFEHSAKKFGKA[S5]VGE[S5][Nle]NS-NH2; staple 16-20)",1.1,–
3.1,3.1,3.1,6.2,CCCC[C@H](NC(=O)[C@@H](NC(=O)[C@H](CCC(=O)O)NC(=O)CNC(=O)[C@]1(C)CCCC=CCCC[C@](C)(NC(=O)[C@H](Cc2ccccc2)NC(=O)[C@H](CCCCN)NC(=O)[C@H](CCCCN)NC(=O)[C@H](C)NC(=O)[C@H](CO)NC(=O)[C@H](Cc2c[nH]cn2)NC(=O)[C@H](CC(C)C)NC(=O)[C@H](Cc2ccccc2)NC(=O)[C@H](CCCCN)NC(=O)CNC(=O)[C@@H](NC(=O)CN)[C@@H](C)CC)C(=O)N[C@@H](CCCCN)C(=O)N[C@@H](C)C(=O)N[C@@H](Cc2ccccc2)C(=O)N1)[C@@H](C)CC)C(=O)N[C@@H](CC(N)=O)C(=O)N[C@@H](CO)C(N)=O [Mag(i + 4)12] (H-GIGKFLHSAKKF[S5]KAF[S5]GEI[Nle]NS-NH2; staple 13-17),76.8,–

# Further lines, the molecule ahead of its results:
Compound,MIC E. coli (E. coli) [µg/mL],MIC P. aeruginosa (P. aeruginosa) [µg/mL],MIC B. cereus (B. cereus) [µg/mL],MIC S. aureus (S. aureus) [µg/mL],% Hemolysis at 25 μg/ml (human red blood cells) [%],hemolytic activity (in words) (human red blood cells)
CCCC[C@H](NC(=O)[C@@H](NC(=O)[C@H](CCC(=O)O)NC(=O)CNC(=O)[C@@H](NC(=O)[C@H](Cc1ccccc1)NC(=O)[C@H](C)NC(=O)[C@H](CCCCN)NC(=O)CNC(=O)[C@]1(C)CCCC=CCCC[C@](C)(NC(=O)[C@H](Cc2c[nH]cn2)NC(=O)[C@H](CC(C)C)NC(=O)[C@H](Cc2ccccc2)NC(=O)[C@H](CCCCN)NC(=O)CNC(=O)[C@@H](NC(=O)CN)[C@@H](C)CC)C(=O)N[C@@H](C)C(=O)N[C@@H](CCCCN)C(=O)N[C@@H](CCCCN)C(=O)N1)C(C)C)[C@@H](C)CC)C(=O)N[C@@H](CC(N)=O)C(=O)N[C@@H](CO)C(N)=O [Mag(i + 4)7] (H-GIGKFLH[S5]AKK[S5]GKAFVGEI[Nle]NS-NH2; staple 8-12),3.1,6.2,6.2,6.2,62.5,–
"CCCC[C@H](NC(=O)[C@@H](NC(=O)[C@H](CCC(=O)O)NC(=O)CNC(=O)[C@@H](NC(=O)[C@H](Cc1ccccc1)NC(=O)[C@H](C)NC(=O)[C@H](CCCCN)NC(=O)[C@]1(C)CCCC=CCCC[C@](C)(NC(=O)[C@H](CO)NC(=O)[C@H](Cc2c[nH]cn2)NC(=O)[C@H](CC(C)C)NC(=O)[C@H](Cc2ccccc2)NC(=O)[C@H](CCCCN)NC(=O)CNC(=O)[C@@H](NC(=O)CN)[C@@H](C)CC)C(=O)N[C@@H](CCCCN)C(=O)N[C@@H](CCCCN)C(=O)N[C@@H](Cc2ccccc2)C(=O)N1)C(C)C)[C@@H](C)CC)C(=O)N[C@@H](CC(N)=O)C(=O)N[C@@H](CO)C(N)=O [Mag(i + 4)8, GIGKFLHSXKKFXKAFVGEIBNS] (H-GIGKFLHS[S5]KKF[S5]KAFVGEI[Nle]NS-NH2; staple 9-13)",3.1,3.1,3.1,12.5,74.6,indiscriminate lytic activity
"CCCC[C@H](NC(=O)[C@]1(C)CCCC=CCCC[C@](C)(NC(=O)[C@H](C)NC(=O)[C@H](CCCCN)NC(=O)CNC(=O)[C@H](Cc2ccccc2)NC(=O)[C@H](CCCCN)NC(=O)[C@H](CCCCN)NC(=O)[C@H](Cc2c[nH]cn2)NC(=O)[C@H](CO)NC(=O)[C@]2(C)CCCC=CCCC[C@](C)(NC(=O)[C@H](CCCCN)NC(=O)CN)C(=O)N[C@@H](CCCCN)C(=O)N[C@@H](Cc3ccccc3)C(=O)N[C@@H](CC(C)C)C(=O)N2)C(=O)N[C@@H](C(C)C)C(=O)N[C@@H](Cc2c[nH]cn2)C(=O)N[C@@H](CCC(=O)O)C(=O)N1)C(=O)N[C@@H](CCC(=O)O)C(=O)N[C@@H](CO)C(N)=O [Mag(i + 4)2, 15(I2X, A9H, G18H, N21E)] (H-GK[S5]KFL[S5]SHKKFGKA[S5]VHE[S5][Nle]ES-NH2; staple 3-7, 16-20)",3.1,6.2,6.2,25,4.0,–
CCCC[C@H](NC(=O)[C@@H](NC(=O)[C@H](CCC(=O)O)NC(=O)CNC(=O)[C@@H](NC(=O)[C@]1(C)CCCC=CCCC[C@](C)(NC(=O)[C@H](CCCCN)NC(=O)[C@H](CCCCN)NC(=O)[C@H](C)NC(=O)[C@H](CO)NC(=O)[C@H](Cc2c[nH]cn2)NC(=O)[C@H](CC(C)C)NC(=O)[C@H](Cc2ccccc2)NC(=O)[C@H](CCCCN)NC(=O)CNC(=O)[C@@H](NC(=O)CN)[C@@H](C)CC)C(=O)NCC(=O)N[C@@H](CCCCN)C(=O)N[C@@H](C)C(=O)N1)C(C)C)[C@@H](C)CC)C(=O)N[C@@H](CC(N)=O)C(=O)N[C@@H](CO)C(N)=O [Mag(i + 4)11] (H-GIGKFLHSAKK[S5]GKA[S5]VGEI[Nle]NS-NH2; staple 12-16),3.1,6.2,6.2,12.5,17.5,–
